Counter-ions that a name gives are not always drawn. Like-named read-outs stand apart in the source and are kept apart here.
System: TNF-α induced IL-6
Experiment: TNF-α-induced IL-6 production determined by IL-6 ELISA
Type: cell-based
Procedure: Human aortic endothelial cells (HAEC, Clonetics) were cultured according to manufacturer in growth medium (Clonetics): basal medium containing human epidermal growth factor, hydrocortisone, vascular endothelial growth factor, heparin binding growth factor-B, long R3-insulin-like growth factor-1, ascorbic acid, gentamicin/amphotericin and 5% FBS. These cell were allowed to reach at least 90% confluency before subjected to experimental treatments. […] Tumor necrosis factor α was from R&D Systems.
All treatments, compound-added and controls were carried out in serum free media containing 0.2% albumin. Media from all conditions were collected and used for IL-6 ELISA.
IL-6 ELISA was carried out using human IL-6 DuoSet ELISA development kit as described by manufacturer (R&D Systems). Mouse anti-human Il-6 was used as the capture antibody (2 ug/ml) and biotinylated goat anti-human IL-6 (200 ng/ml) was used as the detection antibody. Culture media were incubated with capture antibody (in 96 well) for 2 h at room temperature. Wells were washed three times with wash buffer (0.05% tween-20 in phosphate buffered saline (PBS) pH 7.4) followed by incubation with detection antibody for 2 h at room temperature. Following three washes wells were incubated with Streptavidin-HRP for 20 min. Color development was read at 450 nm in a Microplate reader.

[1] = Homo sapiens, 24 h, Table 5, first part, class = % of control IL6 production, read-out: Inhibition of TNF-induced IL6 production
[2] = Homo sapiens, 24 h, Table 5, second part, column 1, class = % of control IL6 production, read-out: Inhibition of TNF-induced IL6, production
[3] = Homo sapiens, 24 h, Table 7, first part, read-out: Inhibition of TNF-induced IL6 production
[4] = Homo sapiens, 24 h, read-out: Inhibition of TNF-induced IL6 production, Table 7, first part
[5] = Homo sapiens, 24 h, read-out: Inhibition of TNF-induced IL6 production, Table 7, second part, column 1

| Compound | activity at 10 µM [1] | activity at 10 µM [2] | also measured |
| --- | --- | --- | --- |
| CCN1CCCC1CNc1nc(Nc2ccc(OC)c(F)c2)nc(NC2CCCCC2)n1 (centres unmarked) [Compound 55, N^2-cyclohexyl-N^4-[(1-ethyl-2-pyrrolidinyl)methyl]-N^6-(3-fluoro-4-methoxyphenyl)-1,3,5-triazine-2,4,6-triamine] | 0 to 25% | – | – |
| COc1ccc(Nc2nc(NC3CCCCCC3)nc(N(C)C3CCN(C)CC3)n2)cc1F [Compound 168, N^2-cycloheptyl-N^4-(3-fluoro-4-methoxy-phenyl)-N^6-methyl-N^6-(1-methyl-piperidin-4-yl)-1,3,5-triazine-2,4,6-triamine citrate salt] | – | – | % IL6 production compare to TNF stimulation of IL6 (100%), HAEC, IL6, @ 5 uM (HAEC, TNF stimulated, compound 5 uM (bracketed value), citrate salt): 40%; % IL6 production compare to TNF stimulation of IL6 (100%), Compds tested @ 10 uM HAEC, IL6 (HAEC, TNF stimulated, compound 10 uM): total cell death |
| CCN1CCCC1CNc1nc(Nc2ccc(N3CCN(C)CC3)cc2)nc(NC2CCCCCC2)n1 (centres unmarked) [Compound 28, N^2-cycloheptyl-N^4-[(1-ethyl-2-pyrrolidinyl)methyl]-N^6-[4-(4-methyl-1-piperazinyl)phenyl]-1,3,5-triazine-2,4,6-triamine] | 0 to 25% | – | – |
| CCN1CCCC1CNc1nc(Nc2ccc(OC)c(F)c2)nc(N2CCN(C)CC2)n1 (centres unmarked) [Compound 62, N^2-[(1-ethyl-2-pyrrolidinyl)methyl]-N^4-(3-fluoro-4-methoxyphenyl)-6-(4-methyl-1-piperazinyl)-1,3,5-triazine-2,4-diamine] | – | 25 to 50% | – |
| COc1ccc(Nc2nc(NC3CCCCCC3)nc(OC3CCCNC3)n2)cc1Cl (centres unmarked) | – | – | Inflammation Data, cell death at 10 uM (10 uM): 20%; inhibition at 10 µM (Homo sapiens, 10 uM, read-out: Inflammation Data, inhibition at 10 uM): 60% |
| CCN1CCCC1CNc1nc(Nc2ccc(N(C)C)cc2)nc(NC2CCCCCC2)n1 (centres unmarked) [Compound 25, N^2-cycloheptyl-N^4-[4-(dimethylamino)phenyl]-N^6-[(1-ethyl-2-pyrrolidinyl)methyl]-1,3,5-triazine-2,4,6-triamine] | – | 0 to 25% | – |
| CCN1CCCC1CNc1nc(Nc2ccc(F)cc2)nc(NC2CCCCCC2)n1 (centres unmarked) [Compound 10, N^2-cycloheptyl-N^4-[(1-ethyl-2-pyrrolidinyl)methyl]-N^6-(4-fluorophenyl)-1,3,5-triazine-2,4,6-triamine] | – | 0 to 25% | – |
| CCN1CCCC1CNc1nc(Nc2ccc(OC)c(F)c2)nc(NC2CCCCCC2)n1 (centres unmarked) [Compound 95, N^2-cycloheptyl-N^4-[(1-ethyl-2-pyrrolidinyl)methyl]-N^6-(3-fluoro-4-methoxyphenyl)-1,3,5-triazine-2,4,6-triamine] | – | – | activity at 10 µM (Homo sapiens, 24 h, read-out: Inhibition of TNF-induced IL6, production): 0 to 25%; activity at 10 µM (Homo sapiens, 24 h, read-out: Inhibition of TNF-induced IL6 production): 0 to 25% |
| CCN1CCCC1CNc1nc(Nc2ccc(OC)c(F)c2)nc(N2CCCCCC2)n1 (centres unmarked) [Compound 58, N^2-[(1-ethyl-2-pyrrolidinyl)methyl]-N^4-(3-fluoro-4-methoxyphenyl)-N^6-hexahydro-1H-azepin-1-yl-1,3,5-triazine-2,4-diamine] | 0 to 25% | 25 to 50% | – |
| CCN1CCCC1CNc1nc(NCCCn2ccnc2)nc(Nc2ccc(OC)c(F)c2)n1 (centres unmarked) [Compound 75, N^2-[(1-ethyl-2-pyrrolidinyl)methyl]-N^4-(3-fluoro-4-methoxyphenyl)-N^6-[3-(1H-imidazol-1-yl)propyl]-1,3,5-triazine-2,4,6-triamine] | 25 to 50% | 25 to 50% | – |
| COc1ccc(Nc2nc(NC3CCCCCC3)nc(N3CCN(C)CC3)n2)cc1F [Compound 87, N^2-cycloheptyl-N^4-(3-fluoro-4-methoxyphenyl)-6-(4-methyl-1-piperazinyl)-1,3,5-triazine-2,4-diamine] | – | 0 to 25% | – |
| COc1ccc(Nc2nc(NC3CCCCCC3)nc(NC3CCNCC3)n2)cc1 | – | – | Inflammation Data, cell death at 5 uM (5 uM): 20%; Inflammation Data, cell death at 10 uM (10 uM): > 50% |
| CCN1CCCC1CNc1nc(NCCCN2CCCC2=O)nc(Nc2ccc(OC)c(F)c2)n1 (centres unmarked) [Compound 74, 1-[3-({4-{[(1-ethyl-2-pyrrolidinyl)methyl]amino}-6-[(3-fluoro-4-methoxyphenyl)amino]-1,3,5-triazin-2-yl}amino)propyl]-2-pyrrolidinone] | – | 25 to 50% | – |
| CCN1CCCC1CNc1nc(Nc2ccc(OC)c(F)c2)nc(N2CCN(C(C)=O)CC2)n1 (centres unmarked) [Compound 63, 6-(4-acetyl-1-piperazinyl)-N^2-[(1-ethyl-2-pyrrolidinyl)methyl]-N^4-(3-fluoro-4-methoxyphenyl)-1,3,5-triazine-2,4-diamine] | 25 to 50% | – | – |
| CCN1CCC[C@@H]1CNc1nc(NC2CCCCCC2)nc(N(CC#N)c2ccccc2)n1 [Compound 144, ({4-cycloheptylamino-6-[((R)-1-ethyl-pyrrolidin-2-ylmethyl)-amino]-1,3,5-triazin-2-yl}-phenyl-amino)-acetonitrile] | 0 to 25% | – | – |
| CCN1CCCC1CNc1nc(NCCN2CCCCC2)nc(Nc2ccc(OC)c(F)c2)n1 (centres unmarked) [Compound 71, N^2-[(1-ethyl-2-pyrrolidinyl)methyl]-N^4-(3-fluoro-4-methoxyphenyl)-N^6-[2-(1-piperidinyl)ethyl]-1,3,5-triazine-2,4,6-triamine] | 0 to 25% | 25 to 50% | – |
| CCN1CCCC1CNc1nc(NCc2ccccc2)nc(Nc2ccc(OC)c(F)c2)n1 (centres unmarked) [Compound 53, N^2-benzyl-N^4-[(1-ethyl-2-pyrrolidinyl)methyl]-N^6-(3-fluoro-4-methoxyphenyl)-1,3,5-triazine-2,4,6-triamine] | 0 to 25% | 25 to 50% | – |
| c1ccc2cc(Nc3nc(NC4CCCCCC4)nc(N4CCOCC4)n3)ccc2c1 [Compound 174, N-Cycloheptyl-6-morpholin-4-yl-N′-naph-thalen-2-yl-[1,3,5]triazine-2,4-diamine] | – | – | inhibition at 10 µM [3]: 85 to 100% |
| CCN1CCCC1CNc1nc(Nc2ccc3ncccc3c2)nc(NC2CCCCCC2)n1 (centres unmarked) [Compound 4, N^2-cycloheptyl-N^4-[(1-ethyl-2-pyrrolidinyl)methyl]-N^6-(6-quinolinyl)-1,3,5-triazine-2,4,6-triamine] | – | 0 to 25% | – |
| CN(c1nc(Nc2ccc(O)cc2)nc(NC2CCCCCC2)n1)C1CCNCC1 | – | – | inhibition at 5 µM (Homo sapiens, read-out: Inflammation Data, inhibition at 5 uM): 50%; Inflammation Data, cell death at 5 uM (human, 24 h, 5 µM): 20%; Inflammation Data, cell death at 10 uM (human, 24 h, 10 µM): total cell death |
| CN1CCC(N(C)c2nc(NCCC3OCCO3)nc(Nc3ccc4ccccc4c3)n2)CC1 [Compound 179, N-(2-[1,3]Dioxolan-2-yl-ethyl)-N′-methyl-N′-(1-meth-yl-piperidin-4-yl)-N″-naphthalen-2-yl-[1,3,5]tri-azine-2,4,6-triamine] | – | – | inhibition at 10 µM [4]: 65 to 85%; inhibition at 10 µM [5]: 50 to 65% |
| COc1ccc(Nc2nc(NC3CCCCCC3)nc(OCC3CCCN3C)n2)cc1Cl (centres unmarked) | – | – | Inflammation Data, cell death at 10 uM (10 uM): total cell death; Inflammation Data, inhibition at 10 uM (10 uM): complete inhibition |
| COc1ccc(Nc2nc(NCCCN3CCCC3=O)nc(NC3CCCCCC3)n2)cc1F [Compound 99, 1-[3-({4-(cycloheptylamino)-6-[(3-fluoro-4-methoxyphenyl)amino]-1,3,5-triazin-2-yl}amino)propyl]-2-pyrrolidinone] | 25 to 50% | 0 to 25% | – |
| CCN1CCCC1CNc1nc(Nc2ccc(OC)c(F)c2)nc(NC(C)(C)C)n1 (centres unmarked) [Compound 52, N^2-(tert-butyl)-N^4-[(1-ethyl-2-pyrrolidinyl)methyl]-N^6-(3-fluoro-4-methoxyphenyl)-1,3,5-triazine-2,4,6-triamine] | 0 to 25% | 25 to 50% | – |
| COc1ccc(Nc2nc(NC3CCCCCC3)nc(N3CCOCC3)n2)cc1 [Compound 177, N-Cycloheptyl-N′-(4-methoxy-phenyl)-6-mor-pholin-4-yl-[1,3,5]triazine-2,4-diamine] | – | – | inhibition at 10 µM [3]: 85 to 100%; inhibition at 10 µM (Homo sapiens, 24 h, Table 7, second part, column 1, read-out: Inhibition of TNF-induced IL6 production): 65 to 85% |
| CCN1CCCC1CNc1nc(NC2CCCCCC2)nc(N(C)c2ccc(F)cc2F)n1 (centres unmarked) [Compound 43, N^2-cycloheptyl-N^4-(2,4-difluorophenyl)-N^6-[(1-ethyl-2-pyrrolidinyl)methyl]-N^4-methyl-1,3,5-triazine-2,4,6-triamine] | – | 0 to 25% | – |
| CCN1CCCC1CNc1nc(Nc2ccccc2C)nc(NC2CCCCCC2)n1 (centres unmarked) [Compound 35, N^2-cycloheptyl-N^4-[(1-ethyl-2-pyrrolidinyl)methyl]-N^6-(2-methylphenyl)-1,3,5-triazine-2,4,6-triamine] | 25 to 50% | 0 to 25% | – |
| CCN1CCCC1CNc1nc(NC2CCCCCC2)nc(N(C)c2ccccc2C(F)(F)F)n1 (centres unmarked) [Compound 46, N^2-cycloheptyl-N^4-[(1-ethyl-2-pyrrolidinyl)methyl]-N^6-methyl-N^6-[2-(trifluoromethyl)phenyl]-1,3,5-triazine-2,4,6-triamine] | – | 0 to 25% | – |
| CN1CCC(N(C)c2nc(Nc3ccc4ccccc4c3)nc(NC3CCCCCC3)n2)CC1 [Compound 172, N-Cycloheptyl-N′-methyl-N′-(1-methyl-piperidin-4-yl)-N″-naphthalen-2-yl-[1,3,5]tri-azine-2,4,6-triamine] | – | – | inhibition at 10 µM [4]: 85 to 100%; inhibition at 10 µM [5]: 65 to 85%; % IL6 production compare to TNF stimulation of IL6 (100%), Compds tested @ 10 μM HAEC, IL6 (Table 7, HAEC, 10 μM compound, TNF stimulation = 100%): 18% |

From patent US7332489B2, “Methods and compositions of novel triazine compounds” (Reddy US Therapeutics, Inc., priority 2003, dated 2008)
